Assay results from patent publication US6906033B2, “Protease inhibitor peptides” (SCIOS NOVA, Inc., priority 1995, dated 2005).

Legend:
[1] = Acute porcine cardiopulmonary bypass (CPB) model, postoperative bleeding; type: in vivo; settings: pigs
Experimental: A randomized, double-blinded study using an acute porcine cardiopulmonary bypass (CPB) model was used to investigate the effect of KPI185-1 on postoperative bleeding. Sixteen pigs (55-65 kg) underwent 60 minutes of hypothermic (28° C.) open-chest CPB with 30 minutes of cardioplegic cardiac arrest. Pigs were randomized against a control solution of physiological saline (NS; n=8) or KPI-185 (n=8) groups. During aortic cross-clamping, the tricuspid valve was inspected through an atriotomy which was subsequently repaired. Following reversal of heparin with protamine, dilateral thoracostomy tubes were placed and shed blood collected for 3 hours. Shed blood volume and hemoglobin (Hgb) loss were calculated from total chest tube output and residual intrathoracic blood at time of sacrifice.

[2] = biological target: T1, activated factor XII (Homo sapiens, UniProt P00748); settings: cited from earlier work
T1 sequence (P00748 373-615 limits assumed): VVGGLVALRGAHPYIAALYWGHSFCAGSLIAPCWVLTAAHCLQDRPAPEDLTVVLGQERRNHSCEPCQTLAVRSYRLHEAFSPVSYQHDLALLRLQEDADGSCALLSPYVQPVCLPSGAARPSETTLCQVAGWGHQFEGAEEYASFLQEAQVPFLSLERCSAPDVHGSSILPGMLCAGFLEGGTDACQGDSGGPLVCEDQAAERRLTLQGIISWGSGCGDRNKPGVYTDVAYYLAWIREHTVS

[3] = tested on: elastase; settings: cited from earlier work
[4] = CPB; cited from earlier work

Q: Which results are given for “KPI (−4→57; M15A, S17F) DD185: KPI (−4→57) variant with M15A, S17F, found by phage display on kallikrein, expressed in yeast from pDD185”?
A: Total Hgb loss ([1]; after CPB, p=0.0005 vs. saline): 13.59±4.26 gm; Thoracostomy drainage Hgb ([1]; at 30 minutes, p=0.004 vs. control): 4.41±1.45 gm/dl; Thoracostomy drainage Hgb ([1]; at 60 minutes, p=0.0002 vs. control): 5.26±1.04 gm/dl; Total blood loss ([1]; shed blood collected for 3 hours after CPB plus residual intrathoracic blood, p=0.009 vs. saline): 245.75 ± 66.24 mL

Q: For aprotinin, which “inhibition of activated factor XII” value [2] is on record?
A: The value was “does not inhibit activated factor XII”.

Q: And the inhibition of elastase [3]?
A: Its inhibition of elastase is “neither native aprotinin nor native KPI significantly inhibits elastase”.

Q: What about the “blood loss following bypass” value [4] of the same substance?
A: Its value is “significant reduction in blood loss”.

Q: And the neutrophil activation [4]?
A: The neutrophil activation was “does not appear to significantly reduce neutrophil activation”.
